Consider seven compounds from PubChem BioAssay (NCI).

Test systems include A549 NSCLC; EKVX NSCLC; HCT-116 colon; HS 578T breast; HT29 colon; IGROV1 ovarian; LOX IMVI melanoma; MDA-MB-231 breast; MDA-MB-435; MDA-N; NCI/ADR-RES ovarian; OVCAR-3 ovarian; RPMI-8226 leukemia; SK-MEL-2 melanoma; SK-MEL-28 melanoma; SN12C renal; SNB-19 CNS; UACC-257 melanoma; UACC-62 melanoma; NCI-H522 lung.
Assay in all cases: NCI-60 cell line screen, 48 h

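Dose response: 5 concentrations. Exposure: 48 h. Format: 96-well plates. Endpoint: linear interpolation; highest concentration if not reached. TGI: concentration producing complete growth inhibition.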

For `CCN1C[C@]2(C)CC[C@H](OC)C34C5C[C@@H]6[C@@H](OC)C[C@@](OC)(C5[C@H]6OCc5ccccc5)C(C13)[C@H](OC(C)=O)[C@@H]42` (stereo partly specified), the TGI in the assay on A549 NSCLC, in the assay with EKVX NSCLC, with HCT-116 colon, in the assay with HS 578T breast, with HT29 colon and in the assay on IGROV1 ovarian was over 100 µM throughout. Further, the TGI in the assay on LOX IMVI melanoma, in the assay on MDA-MB-231 breast, with MDA-MB-435, in the assay on MDA-N, with NCI/ADR-RES ovarian and in the assay on OVCAR-3 ovarian was over 100 µM throughout. Besides, the TGI in the assay on RPMI-8226 leukemia, with SK-MEL-2 melanoma, with SK-MEL-28 melanoma, in the assay on SN12C renal, with SNB-19 CNS and with UACC-257 melanoma was over 100 µM in each case. Besides, the TGI with UACC-62 melanoma was over 100 µM.
Turning to `CN1CCC/C1=C1/C(=O)N(c2ccccc2)N=C1c1ccc[nH]1`, the TGI in the assay with A549 NSCLC, in the assay with EKVX NSCLC, in the assay on HCT-116 colon, with HS 578T breast, in the assay on IGROV1 ovarian and in the assay with LOX IMVI melanoma was over 100 µM throughout. Moreover, the TGI in the assay on MDA-MB-231 breast, in the assay on MDA-MB-435, in the assay with MDA-N, with NCI-H522 lung, in the assay on NCI/ADR-RES ovarian and with OVCAR-3 ovarian was over 100 µM throughout. Also, the TGI in the assay on RPMI-8226 leukemia, in the assay on SK-MEL-2 melanoma, in the assay with SK-MEL-28 melanoma, in the assay with SN12C renal, in the assay with SNB-19 CNS and in the assay with UACC-257 melanoma was over 100 µM each time. The TGI with UACC-62 melanoma was over 100 µM.
As to `O/N=C1/CCCc2nonc21`, the TGI in the assay on A549 NSCLC, in the assay with EKVX NSCLC, with HCT-116 colon, with HS 578T breast, in the assay with HT29 colon and in the assay with IGROV1 ovarian was over 100 µM each time. The TGI with LOX IMVI melanoma, in the assay on MDA-MB-231 breast, in the assay with MDA-MB-435, in the assay with MDA-N, in the assay with NCI/ADR-RES ovarian and in the assay on OVCAR-3 ovarian was over 100 µM in each case. Also, the TGI in the assay on RPMI-8226 leukemia, with SK-MEL-2 melanoma, in the assay with SK-MEL-28 melanoma, with SN12C renal, in the assay on SNB-19 CNS and in the assay on UACC-257 melanoma was over 100 µM throughout. Also, in the assay with UACC-62 melanoma, the TGI is over 100 µM.
Take `C[C@H](NC(=O)CNC(=O)CCCCCC(=O)NCC(=O)N[C@@H](C)C(=O)OCc1ccccc1)C(=O)OCc1ccccc1`: the TGI in the assay with A549 NSCLC, in the assay with EKVX NSCLC, in the assay with HCT-116 colon, in the assay on HS 578T breast, in the assay on HT29 colon and in the assay with IGROV1 ovarian was over 100 µM throughout. Besides, the TGI in the assay on LOX IMVI melanoma, in the assay on MDA-MB-231 breast, in the assay on MDA-MB-435, with MDA-N, with NCI/ADR-RES ovarian and in the assay on OVCAR-3 ovarian was over 100 µM in each case. Besides, the TGI in the assay with RPMI-8226 leukemia, with SK-MEL-2 melanoma, in the assay with SK-MEL-28 melanoma, in the assay with SN12C renal, in the assay on SNB-19 CNS and with UACC-257 melanoma was over 100 µM in each case. The compound also yielded a TGI with UACC-62 melanoma of over 100 µM.
As to `c1ccc(COC2C3COC(O3)C(OCc3ccccc3)C2OCc2ccccc2)cc1` (stereo unspecified), the TGI with EKVX NSCLC, in the assay with HCT-116 colon, in the assay on HS 578T breast, in the assay with IGROV1 ovarian, with LOX IMVI melanoma and with MDA-MB-231 breast was over 100 µM in each case. The TGI was over 100 µM with MDA-MB-435; over 100 µM in the assay with MDA-N; 62.6 µM in the assay with NCI-H522 lung; over 100 µM with NCI/ADR-RES ovarian; over 100 µM with OVCAR-3 ovarian; over 100 µM in the assay with RPMI-8226 leukemia. In addition, the TGI was over 100 µM in the assay on SK-MEL-2 melanoma; 41.7 µM in the assay on SN12C renal; over 100 µM in the assay on SNB-19 CNS; over 100 µM in the assay on UACC-257 melanoma; over 100 µM in the assay with UACC-62 melanoma.
For the compound `CSc1nc2c3ccccc3ccn2c1C(=O)N/N=C/c1ccccc1`, the TGI in the assay with A549 NSCLC is over 100 µM; in the assay with EKVX NSCLC it was over 100 µM; with HCT-116 colon, 38.2 µM; with HS 578T breast it was over 71.6 µM; in the assay on HT29 colon, over 100 µM; in the assay with IGROV1 ovarian, over 100 µM. The TGI with LOX IMVI melanoma is over 100 µM; in the assay on MDA-MB-231 breast, 40.8 µM; in the assay on MDA-MB-435 it was over 100 µM; with MDA-N, over 100 µM; with NCI-H522 lung it was over 100 µM; in the assay on NCI/ADR-RES ovarian, over 71.9 µM. In addition, the TGI in the assay on OVCAR-3 ovarian was 37.4 µM; with RPMI-8226 leukemia it was over 100 µM; with SK-MEL-2 melanoma it was over 100 µM; in the assay on SK-MEL-28 melanoma, over 100 µM; in the assay on SN12C renal, over 100 µM; in the assay on UACC-257 melanoma, over 100 µM. In the assay on UACC-62 melanoma, this compound came in with a TGI of over 100 µM.
Take `CC(=O)N(CC(=O)C(=O)NNc1ccoc1)c1ccc(Cl)cc1`: the TGI in the assay with A549 NSCLC, in the assay with EKVX NSCLC, in the assay with HCT-116 colon, in the assay with HS 578T breast, in the assay with HT29 colon and in the assay on IGROV1 ovarian was over 100 µM throughout. Also, the TGI with LOX IMVI melanoma, with MDA-MB-231 breast, in the assay with MDA-MB-435, in the assay on MDA-N, in the assay on NCI-H522 lung and with NCI/ADR-RES ovarian was over 100 µM each time. Further, the TGI with OVCAR-3 ovarian, with RPMI-8226 leukemia, in the assay on SK-MEL-2 melanoma, with SK-MEL-28 melanoma, with SN12C renal and in the assay on SNB-19 CNS was over 100 µM each time. This compound registered a TGI in the assay on UACC-257 melanoma of over 100 µM.
